Measurements: patent US9951049B2, “Pyrazole linked benzimidazole conjugates and a process for preparation thereof” (Council of Scientific & Industrial Reseach, priority 2014, dated 2018)
Entries after “also recorded” stand apart in the source; their conditions may differ. Like-named read-outs stand apart in the source and are kept apart here.

Assays:
SNB-75 = assay: NCI SRB screen, SNB-75; conditions: Homo sapiens, SNB-75, 48 h, read-out: GI50 values
PC-3 = assay: NCI SRB screen, PC-3; conditions: Homo sapiens, PC-3, 48 h, read-out: GI50 values
[1] = tested on: Prostate cancer cell lines; assay: NCI SRB screen, Prostate panel average; conditions: Homo sapiens, 48 h, read-out: Log10 GI50 (converted)
MALME-3M = assay: NCI SRB screen, MALME-3M; conditions: Homo sapiens, 48 h, read-out: GI50 values
T-47D = assay: NCI SRB screen, T-47D; conditions: Homo sapiens, T47D, 48 h, read-out: GI50 values
CNS cancer cell lines = assay: NCI SRB screen, CNS panel average; conditions: Homo sapiens, 48 h, read-out: Log10 GI50 (converted)
RXF 393 = assay: NCI SRB screen, RXF 393; conditions: Homo sapiens, RXF 393, 48 h, read-out: GI50 values
KM12 = assay: NCI SRB screen, KM12; conditions: Homo sapiens, KM12, 48 h, read-out: GI50 values
Breast Cancer cell lines = assay: NCI SRB screen, Breast Cancer panel average; conditions: Homo sapiens, 48 h, read-out: Log10 GI50 (converted)
K-562 = assay: NCI SRB screen, K-562; conditions: Homo sapiens, K562, 48 h, read-out: GI50 values
HS 578T = assay: NCI SRB screen, HS 578T; conditions: Homo sapiens, 48 h, read-out: GI50 values
Leukemia cell lines = assay: NCI SRB screen, Leukemia panel average; conditions: Homo sapiens, 48 h, read-out: Log10 GI50 (converted)
UO-31 = assay: NCI SRB screen, UO-31; conditions: Homo sapiens, UO-31, 48 h, read-out: GI50 values
OVCAR-5 = assay: NCI SRB screen, OVCAR-5; conditions: Homo sapiens, OVCAR-5, 48 h, read-out: GI50 values
NCIH322M = assay: NCI SRB screen, NCIH322M; conditions: Homo sapiens, NCI-H322M, 48 h, read-out: GI50 values
NCI-H226 = assay: NCI SRB screen, NCI-H226; conditions: Homo sapiens, NCI-H226, 48 h, read-out: GI50 values
MOLT-4 = assay: NCI SRB screen, MOLT-4; conditions: Homo sapiens, MOLT-4, 48 h, read-out: GI50 values
OVCAR-4 = assay: NCI SRB screen, OVCAR-4; conditions: Homo sapiens, OVCAR-4, 48 h, read-out: GI50 values
SF-539 = assay: NCI SRB screen, SF-539; conditions: Homo sapiens, 48 h, read-out: GI50 values
A549/ATCC = assay: NCI SRB screen, A549/ATCC; conditions: Homo sapiens, A549, 48 h, read-out: GI50 values
Colon cancer cell lines = assay: NCI SRB screen, Colon panel average; conditions: Homo sapiens, 48 h, read-out: Log10 GI50 (converted)
HOP-62 = assay: NCI SRB screen, HOP-62; conditions: Homo sapiens, HOP-62, 48 h, read-out: GI50 values
COLO-205 = assay: NCI SRB screen, COLO-205; conditions: Homo sapiens, COLO 205, 48 h, read-out: GI50 values
HCT-116 = assay: NCI SRB screen, HCT-116; conditions: Homo sapiens, HCT-116, 48 h, read-out: GI50 values
SF-295 = assay: NCI SRB screen, SF-295; conditions: Homo sapiens, SF-295, 48 h, read-out: GI50 values
Renal cancer cell lines = assay: NCI SRB screen, Renal panel average; conditions: Homo sapiens, 48 h, read-out: Log10 GI50 (converted)
IGROV1 = assay: NCI SRB screen, IGROV1; conditions: Homo sapiens, IGROV-1, 48 h, read-out: GI50 values
OVCAR-3 = assay: NCI SRB screen, OVCAR-3; conditions: Homo sapiens, OVCAR-3, 48 h, read-out: GI50 values
U251 = assay: NCI SRB screen, U251; conditions: Homo sapiens, U-251, 48 h, read-out: GI50 values
SN12C = assay: NCI SRB screen, SN12C; conditions: Homo sapiens, 48 h, read-out: GI50 values
UACC-62 = assay: NCI SRB screen, UACC-62; conditions: Homo sapiens, UACC-62, 48 h, read-out: GI50 values
CCRF-CEM = assay: NCI SRB screen, CCRF-CEM; conditions: Homo sapiens, 48 h, read-out: GI50 values
[2] = tested on: fifty six human tumor cell lines; assay: NCI human tumor cell line screen (48 h, SRB), all cell lines; conditions: for GI50: Homo sapiens; for anticancer activity (in words): human cancer cell lines of the NCI panel; for Log10 TGI mean graph midpoint (MG_MID): human tumor cell lines, mean over the panel, total growth inhibition; for potency compared with compounds 6f, 6g, 7g and 10f: against all the cell lines tested
[3] = read-out: Log10 GI50 mean graph midpoint (MG_MID) (converted)

SMILES | GI50 (SNB-75) [nM] | GI50 (PC-3) [nM] | GI50 [1] [nM] | GI50 (MALME-3M) [nM] | GI50 (T-47D) [nM] | GI50 (CNS cancer cell lines) [µM] | GI50 (RXF 393) [nM] | GI50 (KM12) [nM] | GI50 (Breast Cancer cell lines) [nM] | GI50 (K-562) [µM] | GI50 (HS 578T) [µM] | GI50 (Leukemia cell lines) [nM] | GI50 (UO-31) [nM] | GI50 (OVCAR-5) [nM] | GI50 (NCIH322M) [µM] | GI50 (NCI-H226) [nM] | GI50 (MOLT-4) [nM] | GI50 (OVCAR-4) [nM] | GI50 (SF-539) [nM] | GI50 (A549/ATCC) [nM] | also measured
Fc1ccc2[nH]c(-c3cc(-c4ccc5c(c4)OCO5)n[nH]3)nc2c1 [7g, 2-(3-(benzo[d][1,3]dioxol-5-yl)-1H-pyrazol-5-yl)-5-fluoro-1H-benzo[d]imidazole] | 2800 | 3780 | 5620 | 2750 | 3210 | 6.31 | 3020 | 2960 | 3630 | 4.81 | 9.53 | 2950 | 2930 | 6440 | 6.88 | 4210 | 3140 | 1370 | 2900 | 3530 | GI50 (Colon cancer cell lines): 5.37 µM; GI50 (HOP-62): 8.54 µM; GI50 (COLO-205): 8.11 µM; GI50 (HCT-116): 4.5 µM; GI50 (SF-295): 4.2 µM; GI50 (Renal cancer cell lines): 4570 nM; GI50 (IGROV1): 3.67 µM; GI50 (OVCAR-3): 5.32 µM; GI50 (U251): 2780 nM; GI50 (SN12C): 4.95 µM; GI50 (UACC-62): 4770 nM; GI50 (CCRF-CEM): 2650 nM; GI50 ([2]; read-out: GI50 value range): 0.34 to 10 µM; GI50 [2, 3]: 4.79 µM; anticancer activity (in words) [2]: significant anticancer activity; also recorded: pronounced activities; Log10 TGI mean graph midpoint (MG_MID) [2]: −4.19
c1ccc2[nH]c(-c3cc(-c4ccc5c(c4)OCO5)n[nH]3)nc2c1 [6g, 2-(3-(benzo[d][1,3]dioxol-5-yl)-1H-pyrazol-5-yl)-1H-benzo[d]imidazole] | 1010 | 3640 | 5130 | 2330 | 3320 | 4.27 | 2360 | 1750 | 3390 | 3.83 | 3.8 | 2510 | 3980 | 1490 | 6.29 | 4420 | 2680 | 2160 | 2710 | 4230 | GI50 (Colon cancer cell lines): 4.07 µM; GI50 (HOP-62): 8.46 µM; GI50 (COLO-205): 4.78 µM; GI50 (HCT-116): 6.36 µM; GI50 (SF-295): 3.24 µM; GI50 (Renal cancer cell lines): 2040 nM; GI50 (IGROV1): 3.66 µM; GI50 (OVCAR-3): 3.21 µM; GI50 (U251): 2370 nM; GI50 (SN12C): 3.73 µM; GI50 (UACC-62): 3080 nM; GI50 (CCRF-CEM): 2520 nM; GI50 ([2]; read-out: GI50 value range): 0.34 to 10 µM; GI50 [2, 3]: 3.72 µM; anticancer activity (in words) [2]: significant anticancer activity; also recorded: pronounced activities; Log10 TGI mean graph midpoint (MG_MID) [2]: −4.75
COc1cc(-c2cc(-c3nc4ccccc4[nH]3)[nH]n2)cc(OC)c1OC [6f, 2-(3-(3,4,5-trimethoxyphenyl)-1H-pyrazol-5-yl)-1H-benzo[d]imidazole] | 2830 | 2100 | 2880 | 1950 | 1110 | 5.25 | 1770 | 3150 | 2240 | 3.08 | 6.89 | 2290 | 2210 | 1300 | 2.85 | 1140 | 2130 | 1260 | 5110 | 2430 | GI50 (Colon cancer cell lines): 4.79 µM; GI50 (HOP-62): 3.54 µM; GI50 (COLO-205): 3.98 µM; GI50 (HCT-116): 3.15 µM; GI50 (SF-295): 3.13 µM; GI50 (Renal cancer cell lines): 2630 nM; GI50 (IGROV1): 2.34 µM; GI50 (OVCAR-3): 4 µM; GI50 (U251): 3730 nM; GI50 (SN12C): 3.91 µM; GI50 (UACC-62): 1640 nM; GI50 (CCRF-CEM): 2120 nM; GI50 ([2]; read-out: GI50 value range): 0.34 to 10 µM; GI50 [2, 3]: 2.88 µM; anticancer activity (in words) [2]: significant anticancer activity; also recorded: pronounced activities; Log10 TGI mean graph midpoint (MG_MID) [2]: −4.83
COc1ccc2[nH]c(-c3cc(-c4cc(OC)c(OC)c(OC)c4)n[nH]3)nc2c1 [9f, 5-methoxy-2-(3-(3,4,5-trimethoxyphenyl)-1H-pyrazol-5-yl)-1H-benzo[d]imidazole] | 2230 | 1030 | 1550 | 1740 | 340 | 2.45 | 2490 | 1700 | 1150 | 2.01 | 2.89 | 1260 | 1570 | 3030 | 2.47 | 460 | 730 | 1240 | 2420 | 1630 | GI50 (Colon cancer cell lines): 2.29 µM; GI50 (HOP-62): 2.02 µM; GI50 (COLO-205): 1.61 µM; GI50 (HCT-116): 1.81 µM; GI50 (SF-295): 1.62 µM; GI50 (Renal cancer cell lines): 2240 nM; GI50 (IGROV1): 1.9 µM; GI50 (OVCAR-3): 2.05 µM; GI50 (U251): 2900 nM; GI50 (SN12C): 2.06 µM; GI50 (UACC-62): 1120 nM; GI50 (CCRF-CEM): 1290 nM; GI50 ([2]; read-out: GI50 value range): 0.34 to 10 µM; GI50 [2, 3]: 1.7 µM; potency compared with compounds 6f, 6g, 7g and 10f [2]: more potent; growth inhibitory activity (in words) ([2]; against breast cancer and leukemia cell lines): potential growth inhibitory activity; anticancer activity (in words) [2]: significant anticancer activity; also recorded: pronounced activities; Log10 TGI mean graph midpoint (MG_MID) [2]: −5.17
COc1cc(-c2cc(-c3nc4cc(Cl)ccc4[nH]3)[nH]n2)cc(OC)c1OC [8f, 5-chloro-2-(3-(3,4,5-trimethoxyphenyl)-1H-pyrazol-5-yl)-1H-benzo[d]imidazole] | 2710 | 2470 | 2880 | 2580 | 1580 | 3.72 | 3260 | 3450 | 2570 | 3.04 | 3.58 | 2450 | 2640 | 1210 | 3.65 | 1880 | 2020 | 1380 | 4660 | 2960 | GI50 (Colon cancer cell lines): 3.98 µM; GI50 (HOP-62): 3.11 µM; GI50 (COLO-205): 3.18 µM; GI50 (HCT-116): 3.45 µM; GI50 (SF-295): 2.35 µM; GI50 (Renal cancer cell lines): 3160 nM; GI50 (IGROV1): 3.42 µM; GI50 (OVCAR-3): 3.5 µM; GI50 (U251): 3380 nM; GI50 (SN12C): 3.06 µM; GI50 (UACC-62): 1970 nM; GI50 (CCRF-CEM): 2480 nM; GI50 ([2]; read-out: GI50 value range): 0.34 to 10 µM; GI50 [2, 3]: 3.02 µM; potency compared with compounds 6f, 6g, 7g and 10f [2]: more potent; anticancer activity (in words) [2]: significant anticancer activity; also recorded: pronounced activities; Log10 TGI mean graph midpoint (MG_MID) [2]: −4.93; mean graph pattern: profile of activity and selectivity ([2]; various cell lines): an interesting profile of activity and selectivity
